Tests used:
OCI-Ly10 cells [1] = test: Dose-response study of BTK inhibitor in the presence of BCL-2 inhibitor, OCI-Ly10; format: cell-based; settings: Homo sapiens, read-out: Inhibitory activity on cell proliferation OCI-Ly10 IC50
Description: (§1) The OCI-Ly10 or U2932 cells (20000 cells/well) were seeded into 96-well plates (cell plates), to which the test compound diluted with the medium was added at final concentrations of 0.009 nM to 30000 nM (a final DMSO concentration of 0.3%), and after 96 hours of culture, an Alamar Blue reagent (Thermo Fisher Scientific Inc.) was added. After 3 hours, the fluorescence of excitation wavelength 560 nm/fluorescence wavelength 590 nm was measured and IC50 values of inhibitory activity were determined by setting a compound-free and cell-free well as 100% and a compound-free and cell-containing well as 0%.
(§2) Changes in IC50 values of the BTK inhibitor in the presence of the BCL-2 inhibitor at various concentrations were examined.

OCI-Ly10 cells [2] = test: Combined effect of BTK inhibitor and BCL-2 inhibitor by BLISS score, OCI-Ly10; format: cell-based, Human; settings: combination with venetoclax, 8×8 matrix, positive = synergistic
Description: The BLISS score is one of the criteria used to evaluate synergistic effects in combination of agents (Borisy et al. Proc. Natl. Acad. Sci. USA., 100(13): 7977-7982 (2003); Griner et al. Proc. Natl. Acad. Sci. USA., 111(6): 2349-54 (2014)). This BLISS score was used to analyze the combined effect of a BTK inhibitor and a BCL-2 inhibitor in terms of proliferation inhibition to OCI-Ly10 cells.
After 96 hours of culture, an Alamar Blue reagent was added, and 3 hours later, fluorescence of excitation wavelength 560 nm/fluorescence wavelength 590 nm was measured. Cell proliferation inhibition rate and viability (100−inhibition rate %) were determined by setting a compound-free and cell-free well as 100% and a compound-free and cell-containing well as 0%.
Theoretical BLISS independence (BLISSin) for each well can be calculated from the following formula when agent A and agent B each are thought to have acted as a single agent (i.e., cell proliferation rate when the concentration of either one compound is 0). G is cell viability.
BLISS score for each well can be derived from a difference between the theoretical BLISSin and a measured value of cell proliferation rate. If the BLISS score is a positive number, it is considered that a synergistic effect is present.
BLISS score=100×(BLISSin−G)

[3] = system: BTK-C481S-mutant OCI-Ly10 cells; test: Cell proliferation suppression test of single agents, BTK-C481S-mutant OCI-Ly10; format: cell-based, Human; settings: Homo sapiens, OCI-Ly10; single agent; read-out: Inhibitory activity on cell proliferation OCI-Ly10 BTK-C481S IC50
Description: as §1
(§3) BTK-C481S-mutant OCI-Ly10 cells were produced by point mutation knock-in using the CRISPR-Cas9 system. Cas9 protein (Thermo Fisher Scientific Inc.), guide RNA prepared with GeneArt™ Precision gRNA Synthesis Kit (Thermo Fisher Scientific Inc.), and a single-stranded synthetic oligonucleotide to replace 481st cysteine residue of BTK with a serine residue were introduced into OCI-Ly10 cells by an electroporation method. The resulting modified OCI-Ly10 cells were cultured in the presence of ibrutinib, and the grown cells were used as BTK-C481S-mutant OCI-Ly10 cells. Transduction of the mutation was confirmed by genomic DNA and mRNA sequence analysis.
In the same manner as in Test Example 1, IC50 values for each inhibitor single agent were determined.

U2932 cells [4] = test: Cell proliferation suppression test of single agents, U2932 (Alamar Blue, 96 h); format: cell-based, Human; settings: Homo sapiens, U2932, single agent, read-out: Inhibitory Activity on cell proliferation IC50 U2932
Description: Human lymphoma cell line U2932 cells (obtained from DSMZ) were cultured in a 5% CO2 incubator using RPMI medium (Roswell Park Memorial Institute medium, Thermo Fisher Scientific Inc.) containing 10% fetal bovine serum (GE Healthcare) and 1% penicillin streptomycin (NACALAI TESQUE, INC.).
as §1

OCI-Ly10 cells [5] = test: Cell proliferation suppression test of single agents, OCI-Ly10 (Alamar Blue, 96 h); format: cell-based, Human; settings: Homo sapiens, OCI-Ly10, single agent, read-out: Inhibitory Activity on cell proliferation IC50 OCI-Ly10
Description: Human lymphoma cell line OCI-Ly10 cells (obtained from University Health Network) were cultured in a 5% CO2 incubator using IMDM medium (Iscove's Modified Dulbecco's Medium, Thermo Fisher Scientific Inc.) containing 20% fetal bovine serum (GE Healthcare) and 1% penicillin streptomycin (NACALAI TESQUE, INC.).
as §1

[6] = system: BTK-C481S-mutant OCI-Ly10 cells; test: Dose-response study of BTK inhibitor in the presence of BCL-2 inhibitor, BTK-C481S-mutant OCI-Ly10; format: cell-based; settings: Homo sapiens, read-out: Inhibitory activity on cell proliferation OCI-Ly10 BTK-C481S IC50
Description: as §3
BTK-C481S-mutant lymphoma cells were used to examine changes in IC50 values of the BTK inhibitor in the presence of various concentrations of BCL-2 inhibitor.
From the results obtained for the BCL-2 inhibitor used as a single agent, BCL-2 inhibitor concentrations for three doses were selected for BTK-C481-mutant OCI-Ly10 cells.

U2932 cells [7] = test: Dose-response study of BTK inhibitor in the presence of BCL-2 inhibitor, U2932; format: cell-based; settings: Homo sapiens, read-out: Inhibitory activity on cell proliferation U2932 IC50
Description: as §1, §2
From the result obtained for the BCL-2 inhibitor used as a single agent, BCL-2 inhibitor concentrations for three doses were selected for each cancer cell line.

[8] = OCI-Ly10, in the presence of S-55746 10 nM
[9] = OCI-Ly10, in the presence of S-55746 30 nM
[10] = OCI-Ly10, in the presence of S-55746 100 nM
[11] = OCI-Ly10, in the presence of navitoclax 10 nM
[12] = OCI-Ly10, in the presence of navitoclax 30 nM
[13] = OCI-Ly10, in the presence of navitoclax 100 nM
[14] = OCI-Ly10, in the presence of obatoclax mesylate 50 nM
[15] = OCI-Ly10, in the presence of obatoclax mesylate 100 nM
[16] = OCI-Ly10, in the presence of obatoclax mesylate 200 nM
[17] = OCI-Ly10, in the presence of venetoclax 1 nM
[18] = OCI-Ly10, in the presence of venetoclax 3 nM
[19] = OCI-Ly10, in the presence of venetoclax 10 nM
[20] = OCI-Ly10, obatoclax mesylate 0 nM

IC50 (OCI-Ly10 cells [1]; OCI-Ly10, S-55746 0 nM): 2.1 nM | IC50 (OCI-Ly10 cells [1]; [8]): 1.3 nM | IC50 (OCI-Ly10 cells [1]; [9]): 1.1 nM | IC50 (OCI-Ly10 cells [1]; [10]): 0.6 nM | IC50 (OCI-Ly10 cells [1]; [11]): 1.4 nM | IC50 (OCI-Ly10 cells [1]; [12]): 1.1 nM | IC50 (OCI-Ly10 cells [1]; [13]): 0.8 nM | IC50 (OCI-Ly10 cells [1]; [14]): 0.9 nM | IC50 (OCI-Ly10 cells [1]; [15]): 0.9 nM | IC50 (OCI-Ly10 cells [1]; [16]): 0.9 nM | IC50 (OCI-Ly10 cells [1]; [17]): 1.5 nM | IC50 (OCI-Ly10 cells [1]; [18]): 1.5 nM | IC50 (OCI-Ly10 cells [1]; [19]): 1.3 nM | IC50 (OCI-Ly10 cells [1]; [20]): 1.2 nM | IC50 (OCI-Ly10 cells [1]; OCI-Ly10, venetoclax 0 nM): 2.1 nM | IC50 [3]: 15 nM | IC50 (OCI-Ly10 cells [5]): 2 nM | IC50 ([6]; OCI-Ly10, S-55746 0 nM): 11 nM | IC50 [6, 8]: 7.9 nM | IC50 [6, 9]: 5.2 nM | IC50 [6, 10]: 3.1 nM | IC50 [6, 11]: 12 nM | IC50 [6, 12]: 8.2 nM | IC50 [6, 13]: 4.1 nM | IC50 [6, 14]: 5.4 nM | IC50 [6, 15]: 4.4 nM | IC50 [6, 16]: 4 nM | IC50 [6, 17]: 10 nM | IC50 [6, 18]: 6.9 nM | IC50 [6, 19]: 4.8 nM | IC50 ([6]; OCI-Ly10, navitoclax 0 nM): 15 nM | IC50 [6, 20]: 16 nM | IC50 ([6]; OCI-Ly10, venetoclax 0 nM): 15 nM
SMILES: Nc1nc(-c2cccc(-n3ccc4cc(C5CC5)cc(F)c4c3=O)c2CO)c2cc(C3=CCN(C4COC4)CC3)[nH]c2n1 [Compound (I-A), 2-(3-{2-amino-6-[1-(oxetan-3-yl)-1,2,3,6-tetrahydropyridin-4-yl]-7H-pyrrolo[2,3-d]pyrimidin-4-yl}-2-(hydroxymethyl)phenyl)-6-cyclopropyl-8-fluoroisoquinolin-1(2H)-one]
BLISS score (OCI-Ly10 cells [2]): positive values | IC50 (U2932 cells [4]): 12500 nM | IC50 (U2932 cells [7]; U2932, S-55746 0 nM): > 30000 nM | IC50 (U2932 cells [7]; U2932, in the presence of S-55746 100 nM): 3480 nM | IC50 (U2932 cells [7]; U2932, in the presence of S-55746 300 nM): 480 nM | IC50 (U2932 cells [7]; U2932, in the presence of S-55746 1000 nM): 22 nM | IC50 (U2932 cells [7]; U2932, in the presence of navitoclax 30 nM): 12000 nM | IC50 (U2932 cells [7]; U2932, in the presence of navitoclax 100 nM): 1950 nM | IC50 (U2932 cells [7]; U2932, in the presence of navitoclax 300 nM): 23 nM | IC50 (U2932 cells [7]; U2932, in the presence of obatoclax mesylate 50 nM): 19600 nM | IC50 (U2932 cells [7]; U2932, in the presence of obatoclax mesylate 100 nM): 13500 nM | IC50 (U2932 cells [7]; U2932, in the presence of venetoclax 3 nM): 4800 nM | IC50 (U2932 cells [7]; U2932, in the presence of venetoclax 10 nM): 1100 nM | IC50 (U2932 cells [7]; U2932, in the presence of venetoclax 100 nM): 14 nM | IC50 (U2932 cells [7]; U2932, navitoclax 0 nM): 28500 nM | IC50 (U2932 cells [7]; U2932, obatoclax mesylate 0 nM): 25900 nM | IC50 (U2932 cells [7]; U2932, venetoclax 0 nM): 13600 nM

Reference: patent US20230100235A1, “ANTICANCER AGENT COMPOSITION” (CARNA BIOSCIENCES, INC., priority 2020, published 2023)
